Reference: patent publication US8975264B2, “Compound acting as a cannabinoid receptor-1 inhibitor” (Amorepacific Corporation, priority 2010, dated 2015)

Biological target: human CB1 (cannabinoid receptor 1) (Homo sapiens, UniProt P21554)
Assay: CB1 receptor inhibition effect: calcium ion influx assay (Fluo-4 NW) in Chem-1 cells after 1 μM R-(+)-WIN55212-2
Format: cell-based
Procedure: When cells in which the cannabinoid receptor 1 (CB1) is stably expressed are treated with a CB1 receptor agonist, the CB1 receptor is activated and influx of calcium ions into the cells increases. CB1 receptor inhibition effect of a test compound can be evaluated by measuring the degree of calcium influx inhibition after treating with the test compound.
First, Chem-1 cells (Chemicon International, #HTS019C) in which human CB1 cDNA is expressed stably were seeded onto a 96-well cell culture plate at a density of ˜50,000 cells/well and incubated overnight in a 5% CO2 incubator at 37° C. The next day, the culture medium was discarded and the cells were cautiously washed once using an assay buffer (HBSS containing 20 mM HEPES and 2.5 mM probenecid) with 200 μL/well. Calcium ion influx was measured using an assay kit (Fluo-4 NW calcium assay kit: Molecular Probes™, #F36206) according to the manufacturer's instructions. The compounds of Examples of desired concentration to be measured were comprised to 0.5% DMSO. For control, only 0.5% DMSO was used without the compounds of Examples. Reaction time was 10 minutes. After treating the Chem-1 cells stably expressing the CB1 receptor with 1 μM R-(+)-WIN55212-2 (Sigma, #W102), a CB1 receptor agonist, calcium ion (Ca^2+) flux induced thereby was measured for 80 seconds using Flex Station 3 (Molecular Device, USA).
The difference in calcium ion concentration of the cells treated with the compounds of Examples or those treated with 1 μM R-(+)-WIN55212-2 was obtained from the difference of the maximum and minimum values during the 80 seconds. Then, % inhibition of the compounds for the CB1 receptor was calculated using the following equation. % inhibition={1−(ΔRFUcompound−ΔRFUBlank)/(ΔRFUControl−ΔRFUBlank)}×100 [Equation]
ΔRFU: maximum relative fluorescence units−minimum relative fluorescence units
ΔRFUCompound: difference in maximum and minimum RFUs in the well where the compounds of Examples dissolved in DMSO to a final concentration of 0.5% and 1 μM R-(+)-WIN55212-2 dissolved in DMSO to a final concentration of 0.5% were added
ΔRFUBlank: difference in maximum and minimum RFUs in the well to which only 1% DMSO was added
ΔRFUControl: difference in maximum and minimum RFUs in the well where 0.5% DMSO and 1 μM R-(+)-WIN55212-2 dissolved in DMSO to a final concentration of 0.5% were added

[1] = calcium ion influx in Chem-1 cells expressing human CB1, 1 μM R-(+)-WIN55212-2

Chain of human CB1 (cannabinoid receptor 1) (P21554 whole entry): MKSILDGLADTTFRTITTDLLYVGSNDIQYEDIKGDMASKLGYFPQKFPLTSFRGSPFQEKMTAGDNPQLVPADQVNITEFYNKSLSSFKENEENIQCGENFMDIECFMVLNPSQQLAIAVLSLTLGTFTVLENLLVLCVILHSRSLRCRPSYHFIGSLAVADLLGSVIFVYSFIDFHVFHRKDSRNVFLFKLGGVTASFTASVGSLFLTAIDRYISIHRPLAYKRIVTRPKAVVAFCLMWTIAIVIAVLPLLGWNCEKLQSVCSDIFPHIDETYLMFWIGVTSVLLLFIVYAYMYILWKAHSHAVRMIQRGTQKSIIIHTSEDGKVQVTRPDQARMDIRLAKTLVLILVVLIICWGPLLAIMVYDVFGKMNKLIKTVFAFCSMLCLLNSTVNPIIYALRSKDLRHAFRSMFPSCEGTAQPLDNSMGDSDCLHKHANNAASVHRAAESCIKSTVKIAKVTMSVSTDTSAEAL

| SMILES | IC50 [1] [nM] | other results |
| --- | --- | --- |
| CCOCc1nn2c(-c3cccc(F)c3)cc(N3CCC[C@H]3CO)nc2c1-c1ccc(OC)cc1 [Example 210] | 170 | – |
| COCc1nn2c(-c3cccc(F)c3)cc(N3CCC[C@H]3CO)nc2c1-c1ccc(Cl)cc1 [Example 232] | 4 | – |
| COCc1nn2c(-c3cccc(C(F)(F)F)c3)cc(N3CCC[C@H]3CO)nc2c1-c1ccc2c(c1)OCO2 [Example 238] | 24 | – |
| CCOCc1nn2c(-c3cccc(Cl)c3)cc(N(C)CCO)nc2c1-c1ccc(OC)cc1 [Example 248] | 600 | – |
| COCc1nn2c(-c3ccc(F)cc3)cc(N3CCC[C@@H]3CO)nc2c1-c1ccc(OC)cc1 [Example 306] | – | CB1 receptor inhibition effect, (R)-isomers compared with (S)-isomers (Chem-1 cells stably expressing human CB1, agonist 1 μM R-(+)-WIN55212-2, compared with Examples 5 and 222): lower CB1 receptor inhibition effect than the compounds of Examples 5 and 222; inhibition at 1 µM (compound at 1 μM, calcium ion influx in Chem-1 cells expressing human CB1, 1 μM R-(+)-WIN55212-2): < 5% |
| CCOCc1nn2c(-c3cccc(F)c3)cc(N(C)CCO)nc2c1-c1ccc(C)cc1 [Example 240] | 10 | – |
| CCc1ccc(-c2c(C)nn3c(-c4cccc(F)c4)cc(N4CCC[C@H]4CO)nc23)cc1 [Example 116] | 160 | – |
| CCOCc1nn2c(-c3cccc(C(F)(F)F)c3)cc(N(C)CCO)nc2c1-c1ccc(OC)cc1 [Example 247] | 16 | – |
| Cc1nn2c(-c3cccc(C(F)(F)F)c3)cc(N3CCC[C@H]3CO)nc2c1-c1ccc(F)cc1F [Example 135] | 120 | – |
| CCOCc1nn2c(-c3cccc(C(F)(F)F)c3)cc(N(C)CCO)nc2c1-c1ccc(Cl)cc1 [Example 244] | 7 | – |
| COc1cccc(-c2cc(N3CCC[C@H]3CO)nc3c(-c4ccc(OC)c(F)c4)c(C)nn23)c1 [Example 186] | 220 | – |
| Cc1ccc(-c2cc(N3CCC[C@H]3CO)nc3c(-c4ccc(Cl)cc4)c(C)nn23)cc1 [Example 11] | 270 | – |
| CCOc1ccc(-c2c(C)nn3c(-c4cccc(C(F)(F)F)c4)cc(N4CCC[C@H]4CO)nc23)cc1 [Example 124] | 70 | – |
| Cc1ccc(-c2c(C)nn3c(-c4ccc(F)cc4F)cc(N4CCC[C@H]4CO)nc23)cc1 [Example 34] | 220 | – |
| OC[C@@H]1CCCN1c1cc(-c2ccc(F)cc2)n2nc(C3CC3)c(-c3ccc(Cl)cc3)c2n1 [Example 196, (S)-(1-(3-(4-chlorophenyl)-7-(4-fluorophenyl)-2-cyclopropylpyrazolo[1,5-a]pyrimidin-5-yl)pyrrolidin-2-yl)methanol] | 140 | – |
| CCOc1ccc(-c2c(C)nn3c(-c4ccc(C)cc4)cc(N4CCC[C@H]4CO)nc23)cc1 [Example 53] | 390 | – |
| Cc1nn2c(-c3ccc(F)cc3)cc(N3CCC[C@H]3CO)nc2c1-c1ccc2c(c1)OCO2 [Example 66] | 140 | – |
| C=Cc1ccc(-c2c(C)nn3c(-c4ccc(F)cc4)cc(N4CCC[C@H]4CO)nc23)cc1 [Example 71] | 210 | – |
| CCc1cccc(-c2cc(N3CCC[C@H]3CO)nc3c(-c4ccc(C)cc4)c(C)nn23)c1 [Example 31] | 130 | – |
| Cc1nn2c(-c3ccc(F)cc3F)cc(N3CCC[C@H]3CO)nc2c1-c1ccc(Cl)cc1 [Example 22] | 110 | – |
| Cc1ccc(-c2cnn3c(-c4ccc(F)cc4)cc(N4CCC[C@H]4CO)nc23)cc1 [Example 269, (S)-(1-(3-(4-methylphenyl)-7-(4-fluorophenyl)-pyrazolo[1,5-a]pyrimidin-5-yl)pyrrolidin-2-yl)methanol] | 450 | – |
| COc1cccc(-c2cc(N3CCC[C@H]3CO)nc3c(-c4ccc(C)c(F)c4)c(C)nn23)c1 [Example 183] | 130 | – |
| COc1ccc(-c2c(C)nn3c(-c4ccc(Cl)cc4)cc(N4CCC[C@H]4CO)nc23)cc1 [Example 44] | 160 | – |
| Cc1nn2c(-c3cccc(Cl)c3)cc(N3CCC[C@H]3CO)nc2c1-c1ccc2c(c1)OCO2 [Example 172] | 190 | – |
| CCCCc1nn2c(-c3cccc(C)c3)cc(N3CCC[C@H]3CO)nc2c1-c1ccc(C)cc1 [Example 289] | 30 | – |

Now from value to compound, other results behind:

| IC50 [1] [nM] | SMILES | other results |
| --- | --- | --- |
| 8 | COCc1nn2c(-c3ccc(F)cc3)cc(N3CCC[C@H]3CO)nc2c1-c1ccc(OC)cc1 [Example 222] | – |
| 120 | Cc1ccc(-c2c(C)nn3c(-c4ccccc4)cc(N4CCC[C@H]4CO)nc23)cc1 [Example 28] | – |
| 160 | Cc1ccc(-c2c(C)nn3c(-c4cccc(Cl)c4)cc(N4CCC[C@H]4CO)nc23)cc1 [Example 170] | – |
| 7 | CCOCc1nn2c(-c3cccc(F)c3)cc(N(C)CCO)nc2c1-c1ccc(Cl)cc1 [Example 243] | – |
| 100 | Cc1nn2c(-c3cccc(Cl)c3)cc(N3CCC[C@H]3CO)nc2c1-c1ccc(Cl)cc1 [Example 2, (S)-(1-(3-(4-chlorophenyl)-7-(3-chlorophenyl)-2-methylpyrazolo[1,5-a]pyrimidin-5-yl)pyrrolidin-2-yl)methanol] | – |
| 200 | CCOc1ccc(-c2c(C)nn3c(-c4cc(F)cc(F)c4)cc(N4CCC[C@H]4CO)nc23)cc1 [Example 55] | – |
| 190 | Cc1nn2c(-c3cccc(C(F)(F)F)c3)cc(N3CCC[C@H]3CO)nc2c1-c1ccc(F)c(F)c1 [Example 134] | – |
| 350 | COc1ccc(-c2c(C)nn3c(-c4ccc(C)cc4)cc(N4CCC[C@H]4CO)nc23)cc1 [Example 42] | – |
| 390 | COc1ccc(-c2c(C)nn3c(-c4ccc(F)c(F)c4)cc(N4CCC[C@H]4CO)nc23)cc1F [Example 187] | – |
| 96 | Cc1nn2c(-c3ccccc3)cc(N3CCC[C@H]3CO)nc2c1-c1ccc(Cl)cc1 [Example 5] | – |
| 6 | CCOCc1nn2c(-c3cccc(C(F)(F)F)c3)cc(N3CCC[C@H]3CO)nc2c1-c1ccc(C)cc1 [Example 204] | – |
| 140 | Cc1nn2c(-c3cccc(F)c3)cc(N3CCC[C@H]3CO)nc2c1-c1ccc(C(F)(F)F)cc1 [Example 115] | – |
| 250 | Cc1nn2c(-c3ccc(F)cc3)cc(N3CCC[C@H]3CO)nc2c1-c1ccc(C#N)cc1 [Example 106] | – |
| 30 | CCOCc1nn2c(-c3cccc(C)c3)cc(N3CCC[C@H]3CO)nc2c1-c1ccc(OC)cc1 [Example 220] | – |
| 170 | COc1ccc(-c2c(C)nn3c(-c4ccc(F)cc4)cc(N4CCC[C@H]4CO)nc23)cc1 [Example 64, (S)-(1-(3-(4-methoxyphenyl)-7-(4-fluorophenyl)-2-methylpyrazolo[1,5-a]pyrimidin-5-yl)pyrrolidin-2-yl)methanol] | – |
| 66 | Cc1nn2c(-c3cccc(C(F)(F)F)c3)cc(N3CCC[C@H]3CO)nc2c1-c1ccc(C(F)(F)F)cc1 [Example 128] | – |

| IC50 [1] [nM] | SMILES | other results |
| --- | --- | --- |
| 470 | Cc1nn2c(-c3ccc(F)cc3)cc(N3CCC[C@H]3CO)nc2c1-c1ccc(OC(C)C)cc1 [Example 85] | – |
| 350 | CCCc1ccc(-c2c(C)nn3c(-c4ccc(F)cc4)cc(N4CCC[C@H]4CO)nc23)cc1 [Example 72] | – |
| 530 | Cc1nn2c(-c3ccc(F)cc3)cc(N3CCC[C@H]3CO)nc2c1-c1ccc(OC(F)(F)F)cc1 [Example 84] | – |
| 310 | CCCOc1ccc(-c2c(C)nn3c(-c4ccc(F)cc4)cc(N4CCC[C@H]4CO)nc23)cc1F [Example 100] | – |
| 240 | CCOc1ccc(-c2c(C)nn3c(-c4cccc(Cl)c4)cc(N4CCC[C@H]4CO)nc23)cc1 [Example 171] | – |
| 300 | Cc1ccccc1-c1cc(N2CCC[C@H]2CO)nc2c(-c3ccc(Cl)cc3)c(C)nn12 [Example 13] | – |
| 780 | Cc1nn2c(-c3ccccc3)cc(N3CCC[C@H]3CO)nc2c1-c1ccccc1 [Example 195] | – |
| 18 | COCc1nn2c(-c3cccc(C)c3)cc(N(C)CCO)nc2c1-c1ccc(Cl)cc1 [Example 262] | – |
| 210 | CCc1cccc(-c2cc(N3CCC[C@H]3CO)nc3c(-c4ccc5c(c4)OCO5)c(C)nn23)c1 [Example 60] | – |
| 140 | Cc1ccc(-c2c(C)nn3c(-c4ccc(Cl)cc4)cc(N4CCC[C@H]4CO)nc23)cc1 [Example 32] | – |
| 360 | Cc1nn2c(-c3ccccc3F)cc(N3CCC[C@H]3CO)nc2c1-c1ccc(Cl)cc1 [Example 4] | – |
| 50 | CCc1nn2c(-c3ccc(F)cc3)cc(N3CCC[C@H]3CO)nc2c1-c1ccc(C)cc1 [Example 198, (S)-(1-(3-(4-methylphenyl)-7-(4-fluorophenyl)-2-ethylpyrazolo[1,5-a]pyrimidin-5-yl)pyrrolidin-2-yl)methanol] | – |
| 120 | Cc1nn2c(-c3cccc(C(F)(F)F)c3)cc(N3CCC[C@H]3CO)nc2c1-c1ccc(Cl)cc1 [Example 9] | – |
| 120 | COc1ccc(-c2c(C)nn3c(-c4cc(F)cc(F)c4)cc(N4CCC[C@H]4CO)nc23)cc1 [Example 45] | – |
| 430 | Cc1nn2c(-c3ccc(F)cc3)cc(N3CCC[C@H]3CO)nc2c1-c1ccccc1F [Example 87] | – |
